Source: patent publication US20030104965A1, “Laundry sanitizer containing partially halogenated hydantoins” (Lonza Inc., priority 2001, published 2003)

Tests used:
K. pneumoniae = assay: Petrocci & Clarke antimicrobial laundry additive test, cotton fabric, Tide powder plus sanitizer; assay type: cell-based; settings: 30 ppm sanitizer (expressed as Cl2), mixture with Tide powder; for Percent Reduction of K. pneumonia on Fabric: cotton fabric
Protocol: Bioefficacy studies were performed using cotton fabric samples to compare monochloro dimethyl hydantoin (MCDMH) to trichloroisocyanuric acid (TCCA) and sodium dichloroisocyanurate (DCCA), two chlorine bleaches. Mixtures of Tide® powder, available from Procter and Gamble of Cincinnati, Ohio, and the sanitizers specified in Table 1 were prepared and thereafter dissolved in water. The sanitizers were completely dissolved in the water before testing. The mixtures were tested according to the known Petrocci & Clarke method (A. Petrocci and P. Clarke, Proposed Test Method for Antimicrobial Laundry Additives, Journal of the Association of Official Analytical Chemists, 52(4), 836-842 (1969)) against K. pneumoniae. The percent reduction of K. pneumonia on the fabric and on the wash water was determined.

[1] = test system: Klebsiella pneumoniae ATCC 4352; assay: Simulated in-use laundry sanitation test (Petrocci and Clarke); assay type: cell-based; settings: pH 7.0, Example 6
Protocol: A simulated “in-use” laundry sanitation test, as described in Petrocci and Clarke, supra, was conducted to evaluate the activity of the samples listed in Table 3 below.
The test was performed as follows. Fabric swatches were inoculated and dried with ˜20,000,000 cfu test organism. (Staphylococcus aureus ATCC 6538, Klebsiella pneumoniae ATCC 4352). The swatches were exposed to a sample dilution for 10 minutes followed by neutralization and enumeration of survivors. The percent reduction of bacteria was calculated for the fabric swatches and wash water.
The sample dilutions were prepared as follows. Tide® powder and MCDMH were dissolved separately in water and mixed together. Then the mixture was adjusted to 150 ppm hard water. The Tide® powder mixture contained about 1.8 g of Tide® powder per liter of mixture.
The procedure in Example 5 was repeated with Klebsiella pneumonia ATCC 4352 only. The Tide® liquid sample was prepared by the same procedure as the Tide® powder sample described in Example 5. The Tide® liquid mixture contained about 1.8 g of Tide® liquid per liter of mixture.

Row | Molecule | Percent Reduction of K. pneumonia in Wash Water (K. pneumoniae) [%] | Percent Reduction of K. pneumonia on Fabric (K. pneumoniae) [%] | % Reduction in 10 Minutes - Kiebsiella Fabric ([1]; 5 ppm (expressed as Cl2)) [%] | % Reduction in 10 Minutes - Kiebsiella Water ([1]; 5 ppm (expressed as Cl2)) [%] | % Reduction in 10 Minutes - Kiebsiella Fabric ([1]; 10 ppm (expressed as Cl2)) [%] | % Reduction in 10 Minutes - Kiebsiella Water ([1]; 10 ppm (expressed as Cl2)) [%] | % Reduction in 10 Minutes - Kiebsiella Fabric ([1]; 20 ppm (expressed as Cl2)) [%] | % Reduction in 10 Minutes - Kiebsiella Water ([1]; 20 ppm (expressed as Cl2)) [%]
1 | O=c1n(Cl)c(=O)n(Cl)c(=O)n1Cl [TCCA, trichloroisocyanuric acid] | 96.38 | 97.09 |  |  |  |  |  | 
2 | monochloro-5,5-dimethyl hydantoin [MCDMH] | 99.76 | 99.60 | 99.99 | 100 | 100 | 100 | 100 | 100
3 | O=c1nc([O-])n(Cl)c(=O)n1Cl.[Na+] [DCCA, sodium dichloroisocyanurate] | 87.50 | 96.36 |  |  |  |  |  | 
